# Assay results taken from US20090031435A1, “SMA Therapy and Cell Based Assay” (priority 2002, published 2009).
# Assays:
# [1] = test system: SMN2-luciferase reporter construct; test: SMN2-luciferase splicing reporter luminescence assay in C33A cells; format: cell-based, human
# Experimental: (§1) In a screen to identify compounds capable of enhancing the inclusion of exon 7 in SMN2 mRNA, cells of the human cervical carcinoma cell line C33A (ATCC#HTB-31) were stably transformed with an SMN fragment/luciferase reporter gene construct that incorporated exons 6-8 of SMN1 or SMN2 for use in a high-throughput screening assay. These cells were cultured in Dulbecco's Modified Eagle's Medium (DMEM) with 10% Fetal Bovine Serum (Sigma F 2442), 50 units/mL penicillin 50 μg/mL streptomycin sulfate and 400 mg/L G418 (i.e. Geneticin, Gibco, cat. No. 11811-031). The assay medium used to perform the luciferase assay was identical to the growth medium except the G418 selection agent was omitted. To perform the luciferase assay, a single reagent (25 mM glycylglycine, 15 mM magnesium sulfate, 4 mM EGTA, adjusted to pH 7.85, to which is added 10 μM D-luciferin (Sigma L9504), 10 mM dithiothreitol (DTT, Roche Molecular Biochemicals 100034), 2 mM adenosine 5′-triphosphate (ATP, Sigma A7699), 50 μM CoenzymeA, sodium salt (Sigma C 3144) and 1.5% Triton X-100) was used to lyse the cells and to initiate the luciferase reaction.
# (§2) Using this cell-based luminescence assay, a screen was performed to identify compounds that modulate SMN splicing. Stably transfected C33A cells (˜35-40 M cells/flask) were cultured, then removed from T-175 culture flasks with 3 mL trypsin, and quenched with 7 mL assay medium. The cells were spun down and re-suspended in assay medium to a concentration of ˜200,000 cells/mL. Cells were immediately seeded in 384-well assay plates (Nalge Nunc white plates, #164610) 57 μL/well for a cell density of 11,000 cells/well. Compounds from a library obtained from the National Institute of Neurological Disorders and Stroke (NINDS) were added to the cells to a final concentration of 10 μM (diluted with assay medium by 1000× from the 10 mM stock solution in DMSO). The cells were incubated with the test compounds at 37° C. for ˜48 hr. A Zymark Sciclone ALH was used for cell seeding and compound addition. After incubation, the assay plates were cooled to room temperature for ˜10-60 minutes. The medium and compounds were aspirated from the wells, followed by 6 rinse/aspirate cycles with a PBS solution. 53 μL of the luciferase assay reagent was added and the plate was immediately transferred to a luminescence plate reader. The plate was shaken for 30 minutes prior to reading. The plate processing steps were performed on an integrated Packard Minitrak/Sidetrak platereader.
# (§3) To analyze the data, the dark count background was first subtracted from all luminescence readings. The signal from each compound treated well was divided by the average of 48 control wells on the same 384-well plate. Each compound library plate was tested in triplicate with each of the two cell lines, and the entire assay was repeated on two separate occasions, yielding six readings for each compound for each cell line. The highest and lowest of the six normalized readings were dropped and the remaining four readings averaged. These average values of compound-treated luminescence versus control luminescence are denoted “Xnorm(y)”, where X indicates the cell line, SMN1-luciferase or SMN2-luciferase, and y represents the compound. The difference of [SMN2norm(y)−SMN1norm(y)] measures the selective change in SMN2-luciferase expression versus change in SMN1 luciferase production upon treatment with compound y. This is the final score that is output.
# (§4) These dilutions were created with a Zymark Sciclone ALH Z-8. Once created, the assay was performed as described for the screening process. Concentrations required to achieve 50% of the maximally achievable effect for each compound (“EC50”) were calculated using Xlfit (IDBS).
# SMN1-luciferase control = SMN1-luciferase control splicing reporter luminescence assay in C33A cells; format: cell-based, human
# Experimental: as §1, §2, §3, §4
# [2] = test system: SMN2-luciferase reporter construct; test: SMN2-luciferase splicing reporter luminescence assay in NSC34 cells; format: cell-based, mouse
# Source text: For example, when luciferase is used as the reporter gene in an SMN splicing assay, synthesis of full-length protein can be monitored by luminescence; positive drug candidates will elicit an increase in the amount of luminescence produced from an SMN2-luciferase cassette, which is normally inefficiently spliced, but will not affect the level of luminescence in cells expressing the SMN1-luciferase reporter (because SMN1 transcripts are normally spliced to include exon 7 about 100% of the time). ELISA, Western blotting or gem counts (obtained using indirect immunofluorescence microscopy) can be used to verify the increase in SMN2-luciferase protein levels, and analysis by RNAase protection, Northern blot or RT-PCR, such as quantitative or semiquantitative, can be used to determine whether the effect of the compound is at the level of splicing or mRNA stability. Identification of a role for indoprofen or analogs of this compound in SMN splicing in vitro can be achieved through the generation of stable cell lines expressing the SMN-reporter gene (e.g., SMN-luciferase) splicing cassette. For example, the embryonic mouse spinal cord cell line NSC34 and the human cervical carcinoma cell line C33A can be used for the methods of the invention. […]
compound,measurement,setting,value
CC(Cc1ccccc1)C(=O)O (stereo not drawn) [Alpha-methylhydrocinnamic acid],Effect on splicing of SMN2-luciferase in C33A cells,[1],Decreased
same,Effect on splicing of SMN1-luciferase control in C33A cells,SMN1-luciferase control,Decreased
same,Effect on splicing of SMN2-luciferase in NSC34 cells,[2],(no effect in NSC34
